Assay results as given in ChEMBL document CHEMBL1136592, “Orally efficacious NR2B-selective NMDA receptor antagonists” (Bioorg Med Chem Lett, 2003).
pIC50, pKi: −log10 of the molar value.

Key:
[1] = biological target: T1, Glutamate receptor ionotropic, NMDA 2B (Homo sapiens, UniProt Q05586+Q13224); assay: Displacement of NMDA receptor-specific [3H]ifenprodil binding to recombinant human NMDA receptor, NR2B subtype expressed in L cells; assay type: cell-based
[2] = biological target: T1, Glutamate receptor ionotropic, NMDA 2B; assay: Inhibition of the response to NMDA glutamate/glycine receptor NR2B subtype was determined using FLIPR assay
[3] = Bioavailability in rat; assay type: ADME, organism-based; details: in vivo
[4] = Half life period in rat; assay type: ADME, organism-based; details: in vivo
Rattus norvegicus = assay: Efficacy was determined by scoring behavioral responses to noxious stimuli in carrageenan-induced hyperalgesia assay in the rat after oral administration; assay type: functional
[5] = biological target: Glutamate receptor ionotropic, NMDA 2A (Homo sapiens, UniProt Q05586+Q12879); assay: Inhibition of the response to NMDA glutamate/glycine receptor NR2A subtype was determined using FLIPR assay
Chain of Glutamate receptor ionotropic, NMDA 2A (Q12879 whole entry, one chain of several): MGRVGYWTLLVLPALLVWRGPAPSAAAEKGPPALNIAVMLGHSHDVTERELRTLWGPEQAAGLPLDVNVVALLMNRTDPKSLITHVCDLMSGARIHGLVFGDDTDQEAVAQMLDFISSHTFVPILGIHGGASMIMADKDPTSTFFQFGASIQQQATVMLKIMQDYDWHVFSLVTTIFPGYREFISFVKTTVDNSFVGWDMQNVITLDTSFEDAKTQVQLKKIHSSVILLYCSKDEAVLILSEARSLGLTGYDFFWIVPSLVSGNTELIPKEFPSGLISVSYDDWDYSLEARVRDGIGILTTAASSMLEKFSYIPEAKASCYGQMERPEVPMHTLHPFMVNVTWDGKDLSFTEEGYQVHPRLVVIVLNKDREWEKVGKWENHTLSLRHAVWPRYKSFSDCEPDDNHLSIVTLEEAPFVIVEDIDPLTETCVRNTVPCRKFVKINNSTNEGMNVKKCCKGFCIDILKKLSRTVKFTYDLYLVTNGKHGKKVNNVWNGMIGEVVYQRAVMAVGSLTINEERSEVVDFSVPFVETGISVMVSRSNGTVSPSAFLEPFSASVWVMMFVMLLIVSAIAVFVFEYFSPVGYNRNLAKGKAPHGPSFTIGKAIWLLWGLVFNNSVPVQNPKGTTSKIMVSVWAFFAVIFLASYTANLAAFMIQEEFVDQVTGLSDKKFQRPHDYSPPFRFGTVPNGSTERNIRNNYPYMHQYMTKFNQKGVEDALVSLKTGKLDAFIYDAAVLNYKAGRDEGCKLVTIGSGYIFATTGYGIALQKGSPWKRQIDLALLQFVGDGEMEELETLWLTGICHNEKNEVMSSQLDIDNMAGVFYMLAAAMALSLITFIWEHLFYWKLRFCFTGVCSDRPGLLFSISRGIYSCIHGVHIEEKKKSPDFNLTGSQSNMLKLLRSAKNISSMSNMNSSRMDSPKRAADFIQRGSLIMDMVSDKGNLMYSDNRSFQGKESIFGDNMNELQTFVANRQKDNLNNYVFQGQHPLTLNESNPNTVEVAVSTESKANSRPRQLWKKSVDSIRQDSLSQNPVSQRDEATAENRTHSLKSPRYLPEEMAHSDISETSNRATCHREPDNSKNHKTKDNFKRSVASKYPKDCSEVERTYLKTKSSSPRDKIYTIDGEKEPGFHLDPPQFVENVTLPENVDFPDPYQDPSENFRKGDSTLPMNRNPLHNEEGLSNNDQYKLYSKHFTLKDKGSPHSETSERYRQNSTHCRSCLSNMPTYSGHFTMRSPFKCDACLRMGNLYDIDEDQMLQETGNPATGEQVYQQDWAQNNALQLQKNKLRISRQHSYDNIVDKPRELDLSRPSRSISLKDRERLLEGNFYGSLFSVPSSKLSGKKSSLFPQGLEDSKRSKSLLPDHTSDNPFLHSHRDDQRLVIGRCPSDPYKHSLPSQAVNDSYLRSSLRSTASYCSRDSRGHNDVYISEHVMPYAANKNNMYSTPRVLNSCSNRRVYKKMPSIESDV

T1 sequence (Q13224 whole entry, one chain of several): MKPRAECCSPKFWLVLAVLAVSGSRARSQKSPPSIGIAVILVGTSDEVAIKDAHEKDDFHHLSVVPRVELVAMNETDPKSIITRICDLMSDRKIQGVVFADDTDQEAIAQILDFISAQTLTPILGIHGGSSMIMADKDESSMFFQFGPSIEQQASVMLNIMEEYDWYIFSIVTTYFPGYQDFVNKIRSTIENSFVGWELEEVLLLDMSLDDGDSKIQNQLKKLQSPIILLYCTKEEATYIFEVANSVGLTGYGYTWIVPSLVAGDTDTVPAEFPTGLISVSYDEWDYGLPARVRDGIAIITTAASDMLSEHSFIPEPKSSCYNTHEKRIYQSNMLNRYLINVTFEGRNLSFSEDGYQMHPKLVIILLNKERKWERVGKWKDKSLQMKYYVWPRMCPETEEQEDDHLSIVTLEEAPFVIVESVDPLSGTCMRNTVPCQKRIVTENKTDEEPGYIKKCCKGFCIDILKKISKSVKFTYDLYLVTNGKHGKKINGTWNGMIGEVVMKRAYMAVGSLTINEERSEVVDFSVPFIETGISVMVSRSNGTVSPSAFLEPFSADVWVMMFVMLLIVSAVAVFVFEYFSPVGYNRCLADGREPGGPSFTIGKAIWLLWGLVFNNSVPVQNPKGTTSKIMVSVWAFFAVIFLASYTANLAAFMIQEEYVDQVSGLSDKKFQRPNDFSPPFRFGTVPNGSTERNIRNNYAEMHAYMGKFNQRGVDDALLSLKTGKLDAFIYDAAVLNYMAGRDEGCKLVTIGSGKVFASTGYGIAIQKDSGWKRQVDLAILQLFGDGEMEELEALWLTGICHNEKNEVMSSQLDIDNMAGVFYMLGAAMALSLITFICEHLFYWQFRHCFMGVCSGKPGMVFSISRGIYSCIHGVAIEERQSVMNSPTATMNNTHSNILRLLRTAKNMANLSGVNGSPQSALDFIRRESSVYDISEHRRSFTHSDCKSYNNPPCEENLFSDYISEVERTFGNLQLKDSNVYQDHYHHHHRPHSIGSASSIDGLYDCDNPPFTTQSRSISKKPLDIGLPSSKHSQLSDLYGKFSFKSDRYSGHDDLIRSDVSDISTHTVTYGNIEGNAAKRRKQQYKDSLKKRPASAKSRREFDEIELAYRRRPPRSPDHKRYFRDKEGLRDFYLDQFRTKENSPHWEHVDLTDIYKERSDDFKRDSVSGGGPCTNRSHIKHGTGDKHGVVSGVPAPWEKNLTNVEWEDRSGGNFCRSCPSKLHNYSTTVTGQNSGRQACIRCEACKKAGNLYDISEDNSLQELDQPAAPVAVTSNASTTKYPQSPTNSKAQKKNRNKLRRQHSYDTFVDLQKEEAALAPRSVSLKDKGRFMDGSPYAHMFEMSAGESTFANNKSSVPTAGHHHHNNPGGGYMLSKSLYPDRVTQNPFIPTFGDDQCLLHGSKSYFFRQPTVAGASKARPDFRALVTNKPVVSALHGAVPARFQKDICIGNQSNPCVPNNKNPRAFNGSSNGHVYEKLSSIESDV

pKi [1] | pIC50 [2] | bioavailability [3] [%] | half-life [4] [h] | pIC50 [5] | Compound | ED50 (Rattus norvegicus) [mg/kg]
8.05 |  |  |  |  | N=C(/C=C/c1ccccc1)NCc1ccccc1 | 
7.14 | 7.33 | 100 | 2.45 | < 5.00 | NC(=NCc1ccccc1C(F)(F)F)c1ccc(OC(F)(F)F)cc1 | 5.5
6.32 | 6.44 |  |  |  | N=C(NCc1ccccc1)c1ccc(C(F)(F)F)cc1 | 
7.70 | 7.49 |  |  |  | NC(=NCc1cccc(Cl)c1)c1ccc(C(F)(F)F)cc1 | 
8.24 | 8.39 |  |  |  | COc1ccccc1C/N=C(\N)c1ccc(OC(F)(F)F)cc1 | 
8.92 | 8.38 | 4 | 1.53 | < 5.00 | Cc1cc(C)cc(C/N=C(\N)c2ccc(OC(F)(F)F)cc2)c1 | > 30
7.80 | 6.96 | 44 | 1.5 | < 5.00 | NC(=NCc1cccc(Cl)c1)c1ccc(Cl)c(Cl)c1 | 14
6.22 | 6.35 |  |  |  | N=C(NCc1cccc(Cl)c1)c1ccc(F)cc1 | 
5.96 |  |  |  |  | COc1ccc(C/N=C(\N)c2ccc(OC(F)(F)F)cc2)cc1 | 
9.22 | 7.62 | 68 | 7 | < 5.00 | N=C(NCc1cc(Cl)cc(Cl)c1)c1ccc(OC(F)(F)F)cc1 | 16
6.92 | 7.34 |  |  |  | N=C(NCc1ccccc1)c1ccc(OC(F)(F)F)cc1 | 
7.20 | 6.80 |  |  |  | N=C(NCc1cccc(Cl)c1)c1ccc(Cl)cc1 | 
7.92 | 7.24 | 31 | 3.05 | < 5.00 | N=C(NCc1ccccc1OC(F)(F)F)c1ccc(Cl)c(Cl)c1 | 7.5
6.01 | 6.14 |  |  |  | NC(=NCc1ccccc1)c1ccc(Cl)cc1 | 
8.41 | 8.06 |  |  |  | Cc1cc(C)cc(C/N=C(\N)c2ccc(C(F)(F)F)cc2)c1 | 
6.10 | 6.38 |  |  |  | NC(=NCc1cccc(Cl)c1)c1cccc(Cl)c1 | 
6.15 | 6.18 |  |  |  | N=C(NCc1cccc(C(F)(F)F)c1)c1ccc(C(F)(F)F)cc1 | 
5.74 |  |  |  |  | N=C(NCc1ccccc1)c1ccc(-c2ccccc2)cc1 | 
5.41 |  |  |  |  | NC(=NCc1cccc(Cl)c1)c1ccccc1Cl | 
7.64 | 8.01 |  |  |  | COc1cccc(C/N=C(\N)c2ccc(OC(F)(F)F)cc2)c1 | 
< 4.82 |  |  |  |  | NC(=NCc1ccccc1)c1ccccc1 | 
5.70 |  |  |  |  | N=C(NCc1cccc(Cl)c1)c1cccc(F)c1 | 
7.25 | 7.32 |  |  |  | N=C(NCc1ccccc1Cl)c1ccc(C(F)(F)F)cc1 | 

Compound | pKi [1] | pIC50 [2] | bioavailability [3] [%] | half-life [4] [h] | pIC50 [5] | ED50 (Rattus norvegicus) [mg/kg]
NC(=NCc1cccc(Cl)c1)c1ccccc1F | < 4.82 |  |  |  |  | 
